Test results: patent publication US6506765B2 (TAP Pharmaceutical Products, Inc., priority 2000, dated 2003)
Read-outs that look alike come from different tables or passages of the source.

Tests used:
Dopamine D3 = Dopamine D3 (Homo sapiens, UniProt P35462); assay: radioligand binding assay, Dopamine D3
Procedure: (§1) Routine radioligand binding assays were performed using reference standards according to established methodology. IC50 values were determined by a non-linear least square regression analysis.

muscarinic M1 = muscarinic M1 (Homo sapiens, UniProt P11229); assay: radioligand binding assay, muscarinic M1
Procedure: as §1

[1] = target: vasoactive intestinal peptide (VIP1) (Homo sapiens, UniProt P32241); assay: radioligand binding assay, VIP1
[2] = system: gamma aminobutyric acid GABAA; assay: radioligand binding assay, GABAA
serotonin 5-HT4 = serotonin 5-HT4 (Homo sapiens, UniProt Q13639); assay: radioligand binding assay, serotonin 5-HT4
Serotonin 5-HT1A = Serotonin 5-HT1A (Homo sapiens, UniProt P08908); assay: radioligand binding assay, Serotonin 5-HT1A
Procedure: as §1

adrenergic β3 = adrenergic β3 (Homo sapiens, UniProt P13945); assay: radioligand binding assay, adrenergic β3
Procedure: as §1

dopamine D4.2 = assay: radioligand binding assay, dopamine D4.2
Procedure: as §1

tachykinin NK1 = tachykinin NK1 (Homo sapiens, UniProt P25103); assay: radioligand binding assay, tachykinin NK1
neuropeptide Y NPY1 = neuropeptide Y NPY1 (Homo sapiens, UniProt P25929); assay: radioligand binding assay, neuropeptide Y NPY1
Procedure: as §1

nicotinic = assay: radioligand binding assay, nicotinic
adrenergic β1 = adrenergic β1 (Homo sapiens, UniProt P08588); assay: radioligand binding assay, adrenergic β1
Procedure: as §1

Serotonin 5-HT2A = Serotonin 5-HT2A (Homo sapiens, UniProt P28223); assay: radioligand binding assay, Serotonin 5-HT2A
Procedure: as §1

Serotonin 5-HT6 = Serotonin 5-HT6 (Homo sapiens, UniProt P50406); assay: radioligand binding assay, Serotonin 5-HT6
adrenergic β2 = adrenergic β2 (Homo sapiens, UniProt P07550); assay: radioligand binding assay, adrenergic β2
Procedure: as §1

Serotonin 5-HT7 = Serotonin 5-HT7 (Homo sapiens, UniProt P34969); assay: radioligand binding assay, Serotonin 5-HT7
Procedure: as §1

muscarinic M2 = muscarinic M2 (Homo sapiens, UniProt P08172); assay: radioligand binding assay, muscarinic M2
Procedure: as §1

[3] = target: calcitonin gene related peptide (CGRP) (Homo sapiens, UniProt O60894+Q16602); assay: radioligand binding assay, CGRP
dopamine D4.7 = assay: radioligand binding assay, dopamine D4.7
Procedure: as §1

muscarinic M4 = muscarinic M4 (Homo sapiens, UniProt P08173); assay: radioligand binding assay, muscarinic M4
tachykinin NK3 = tachykinin NK3 (Homo sapiens, UniProt P29371); assay: radioligand binding assay, tachykinin NK3
Serotonin 5-HT2 = assay: radioligand binding assay, Serotonin 5-HT2
Serotonin 5-HT1B = Serotonin 5-HT1B (Homo sapiens, UniProt P28222); assay: radioligand binding assay, Serotonin 5-HT1B
Adrenergic α1A = Adrenergic α1A (Homo sapiens, UniProt P35348); assay: radioligand binding assay, Adrenergic α1A
Procedure: as §1

Adrenergic α2A = Adrenergic α2A (Homo sapiens, UniProt P08913); assay: radioligand binding assay, Adrenergic α2A
Procedure: as §1

muscarinic M3 = muscarinic M3 (Homo sapiens, UniProt P20309); assay: radioligand binding assay, muscarinic M3
Procedure: as §1

dopamine D4.4 = dopamine D4.4 (Homo sapiens, UniProt P21917); assay: radioligand binding assay, dopamine D4.4
Procedure: as §1

nitric oxide synthetase = assay: activity of nitric oxide synthetase; assay type: biochemical
Adrenergic α2B = Adrenergic α2B (Homo sapiens, UniProt P18089); assay: radioligand binding assay, Adrenergic α2B
Procedure: as §1

muscarinic M5 = muscarinic M5 (Homo sapiens, UniProt P08912); assay: radioligand binding assay, muscarinic M5
neuropeptide Y NPY2 = neuropeptide Y NPY2 (Homo sapiens, UniProt P49146); assay: radioligand binding assay, neuropeptide Y NPY2
Procedure: as §1

Opiate μ = Opiate μ (Homo sapiens, UniProt P35372); assay: radioligand binding assay, Opiate μ
Procedure: as §1

[4] = target: gamma aminobutyric acid GABAB (Homo sapiens, UniProt Q9UBS5); assay: radioligand binding assay, GABAB
Dopamine D2S = Dopamine D2S (Homo sapiens, UniProt P14416); assay: radioligand binding assay, Dopamine D2S
Procedure: as §1

tachykinin NK2 = tachykinin NK2 (Homo sapiens, UniProt P21452); assay: radioligand binding assay, tachykinin NK2
Adrenergic α2C = Adrenergic α2C (Homo sapiens, UniProt P18825); assay: biochemical
Procedure: as §1

Serotonin 5-HT1D = Serotonin 5-HT1D (Homo sapiens, UniProt P28221); assay: radioligand binding assay, Serotonin 5-HT1D
Procedure: as §1

opiate κ = opiate κ (Homo sapiens, UniProt P41145); assay: radioligand binding assay, opiate κ
Procedure: as §1

Adrenergic α1B = Adrenergic α1B (Homo sapiens, UniProt P35368); assay: radioligand binding assay, Adrenergic α1B
opiate δ = opiate δ (Homo sapiens, UniProt P41143); assay: radioligand binding assay, opiate δ
Procedure: as §1

Chain of tachykinin NK2 (P21452 whole entry): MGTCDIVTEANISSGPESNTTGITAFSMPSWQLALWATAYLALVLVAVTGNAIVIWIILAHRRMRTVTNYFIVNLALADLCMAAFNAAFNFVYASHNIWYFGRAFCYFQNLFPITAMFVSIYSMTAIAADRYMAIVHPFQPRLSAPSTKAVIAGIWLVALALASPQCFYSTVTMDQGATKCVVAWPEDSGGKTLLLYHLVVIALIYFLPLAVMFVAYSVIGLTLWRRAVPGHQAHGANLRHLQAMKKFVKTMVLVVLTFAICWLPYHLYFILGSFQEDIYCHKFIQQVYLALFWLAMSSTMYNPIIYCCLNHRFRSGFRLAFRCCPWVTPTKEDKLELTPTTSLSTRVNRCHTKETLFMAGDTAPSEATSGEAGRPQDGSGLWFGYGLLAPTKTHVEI
Chain of serotonin 5-HT4 (Q13639 whole entry): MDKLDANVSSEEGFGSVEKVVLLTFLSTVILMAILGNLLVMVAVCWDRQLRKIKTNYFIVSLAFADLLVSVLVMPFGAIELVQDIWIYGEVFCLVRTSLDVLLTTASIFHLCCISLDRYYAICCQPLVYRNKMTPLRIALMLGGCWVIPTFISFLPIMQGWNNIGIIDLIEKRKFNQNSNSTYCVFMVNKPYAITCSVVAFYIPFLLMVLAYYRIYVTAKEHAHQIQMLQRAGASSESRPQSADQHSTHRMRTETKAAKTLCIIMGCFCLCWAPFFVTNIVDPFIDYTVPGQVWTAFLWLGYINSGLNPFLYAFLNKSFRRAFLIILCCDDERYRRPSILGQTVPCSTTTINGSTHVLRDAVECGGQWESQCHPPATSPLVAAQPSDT
Chain of muscarinic M5 (P08912 whole entry): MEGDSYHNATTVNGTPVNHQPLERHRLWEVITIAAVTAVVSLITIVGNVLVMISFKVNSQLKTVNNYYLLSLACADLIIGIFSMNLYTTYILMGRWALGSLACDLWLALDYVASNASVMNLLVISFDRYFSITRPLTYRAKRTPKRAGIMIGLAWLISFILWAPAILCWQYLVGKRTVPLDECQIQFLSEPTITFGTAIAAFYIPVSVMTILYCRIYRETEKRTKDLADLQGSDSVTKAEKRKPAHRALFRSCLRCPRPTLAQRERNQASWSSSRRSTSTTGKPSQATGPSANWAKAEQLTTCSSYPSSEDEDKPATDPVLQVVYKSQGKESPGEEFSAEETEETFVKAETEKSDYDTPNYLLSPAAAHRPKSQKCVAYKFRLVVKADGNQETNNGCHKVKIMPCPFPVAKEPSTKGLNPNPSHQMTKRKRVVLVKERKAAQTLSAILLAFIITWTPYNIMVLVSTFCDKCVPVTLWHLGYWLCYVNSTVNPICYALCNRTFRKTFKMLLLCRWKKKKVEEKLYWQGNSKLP
Chain of muscarinic M3 (P20309 whole entry): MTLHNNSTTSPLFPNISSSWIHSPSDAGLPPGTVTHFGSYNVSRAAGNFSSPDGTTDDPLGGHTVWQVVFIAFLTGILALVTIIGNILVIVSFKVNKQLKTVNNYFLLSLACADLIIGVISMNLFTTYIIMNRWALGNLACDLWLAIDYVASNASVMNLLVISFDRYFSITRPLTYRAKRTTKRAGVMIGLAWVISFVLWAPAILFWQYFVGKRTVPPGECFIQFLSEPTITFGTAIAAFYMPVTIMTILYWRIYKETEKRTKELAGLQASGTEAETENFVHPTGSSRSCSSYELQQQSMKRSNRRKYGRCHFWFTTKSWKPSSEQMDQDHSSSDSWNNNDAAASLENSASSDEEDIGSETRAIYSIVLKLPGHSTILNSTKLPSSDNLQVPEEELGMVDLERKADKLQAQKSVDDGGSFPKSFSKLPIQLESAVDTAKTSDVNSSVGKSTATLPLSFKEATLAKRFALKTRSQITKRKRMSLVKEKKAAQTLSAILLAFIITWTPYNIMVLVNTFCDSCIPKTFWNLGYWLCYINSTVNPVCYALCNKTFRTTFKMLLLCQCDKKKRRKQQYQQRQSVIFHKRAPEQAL
Chain of tachykinin NK1 (P25103 whole entry): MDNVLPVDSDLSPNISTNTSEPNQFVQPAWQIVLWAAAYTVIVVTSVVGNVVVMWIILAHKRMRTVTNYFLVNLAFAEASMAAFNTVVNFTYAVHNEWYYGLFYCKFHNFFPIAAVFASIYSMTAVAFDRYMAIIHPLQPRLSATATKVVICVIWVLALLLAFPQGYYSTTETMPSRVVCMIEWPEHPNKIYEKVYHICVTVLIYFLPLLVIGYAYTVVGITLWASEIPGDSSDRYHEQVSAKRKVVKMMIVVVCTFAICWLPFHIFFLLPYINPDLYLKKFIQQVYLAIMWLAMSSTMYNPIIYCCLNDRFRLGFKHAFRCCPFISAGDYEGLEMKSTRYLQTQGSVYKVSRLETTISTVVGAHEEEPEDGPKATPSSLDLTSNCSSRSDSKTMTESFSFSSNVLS
Chain of Opiate μ (P35372 whole entry): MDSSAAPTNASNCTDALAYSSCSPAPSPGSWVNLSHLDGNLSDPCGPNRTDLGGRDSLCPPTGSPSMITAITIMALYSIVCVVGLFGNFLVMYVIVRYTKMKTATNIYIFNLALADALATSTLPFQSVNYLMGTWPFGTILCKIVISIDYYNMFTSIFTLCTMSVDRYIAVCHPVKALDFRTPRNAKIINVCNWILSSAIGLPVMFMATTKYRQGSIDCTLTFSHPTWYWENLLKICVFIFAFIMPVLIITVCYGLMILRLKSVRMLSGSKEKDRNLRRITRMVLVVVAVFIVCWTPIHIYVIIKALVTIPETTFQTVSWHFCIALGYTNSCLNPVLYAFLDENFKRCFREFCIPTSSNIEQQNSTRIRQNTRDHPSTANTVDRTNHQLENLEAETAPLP
Chain of neuropeptide Y NPY1 (P25929 whole entry): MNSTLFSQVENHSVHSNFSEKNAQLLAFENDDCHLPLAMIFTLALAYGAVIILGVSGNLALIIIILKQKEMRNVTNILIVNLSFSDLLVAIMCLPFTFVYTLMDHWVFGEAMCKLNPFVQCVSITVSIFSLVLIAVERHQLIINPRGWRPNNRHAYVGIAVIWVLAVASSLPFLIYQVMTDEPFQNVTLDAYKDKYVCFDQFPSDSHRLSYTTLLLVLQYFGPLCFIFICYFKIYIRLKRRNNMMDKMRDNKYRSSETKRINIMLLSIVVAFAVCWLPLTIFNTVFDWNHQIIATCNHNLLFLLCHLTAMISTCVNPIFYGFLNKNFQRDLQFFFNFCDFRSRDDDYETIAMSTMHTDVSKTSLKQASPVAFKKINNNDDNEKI
Chain of tachykinin NK3 (P29371 whole entry): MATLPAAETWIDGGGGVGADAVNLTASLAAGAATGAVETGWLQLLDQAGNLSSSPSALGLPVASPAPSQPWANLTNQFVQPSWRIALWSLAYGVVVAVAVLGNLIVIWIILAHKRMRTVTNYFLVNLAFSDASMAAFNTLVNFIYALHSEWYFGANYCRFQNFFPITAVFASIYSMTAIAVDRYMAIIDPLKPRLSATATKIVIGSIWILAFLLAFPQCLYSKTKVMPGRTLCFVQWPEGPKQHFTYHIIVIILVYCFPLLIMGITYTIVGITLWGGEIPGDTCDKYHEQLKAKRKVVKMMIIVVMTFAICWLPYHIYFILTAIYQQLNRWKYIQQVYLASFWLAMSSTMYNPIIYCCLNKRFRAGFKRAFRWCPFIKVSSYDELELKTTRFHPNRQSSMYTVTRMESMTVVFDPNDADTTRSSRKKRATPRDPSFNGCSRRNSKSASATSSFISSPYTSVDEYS
Chain of Serotonin 5-HT2A (P28223 whole entry): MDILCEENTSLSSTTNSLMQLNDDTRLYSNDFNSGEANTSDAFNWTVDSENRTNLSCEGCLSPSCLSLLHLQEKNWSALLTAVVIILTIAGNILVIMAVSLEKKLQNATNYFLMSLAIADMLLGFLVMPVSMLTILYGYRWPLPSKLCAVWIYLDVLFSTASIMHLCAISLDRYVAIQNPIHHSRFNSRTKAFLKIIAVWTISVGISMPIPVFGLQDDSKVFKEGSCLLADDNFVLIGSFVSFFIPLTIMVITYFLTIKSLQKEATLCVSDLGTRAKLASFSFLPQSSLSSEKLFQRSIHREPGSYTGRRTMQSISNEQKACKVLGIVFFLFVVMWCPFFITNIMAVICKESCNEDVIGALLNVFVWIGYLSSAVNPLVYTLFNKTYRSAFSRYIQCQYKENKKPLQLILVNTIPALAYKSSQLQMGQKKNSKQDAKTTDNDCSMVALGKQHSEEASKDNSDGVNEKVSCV
Chain of muscarinic M4 (P08173 whole entry): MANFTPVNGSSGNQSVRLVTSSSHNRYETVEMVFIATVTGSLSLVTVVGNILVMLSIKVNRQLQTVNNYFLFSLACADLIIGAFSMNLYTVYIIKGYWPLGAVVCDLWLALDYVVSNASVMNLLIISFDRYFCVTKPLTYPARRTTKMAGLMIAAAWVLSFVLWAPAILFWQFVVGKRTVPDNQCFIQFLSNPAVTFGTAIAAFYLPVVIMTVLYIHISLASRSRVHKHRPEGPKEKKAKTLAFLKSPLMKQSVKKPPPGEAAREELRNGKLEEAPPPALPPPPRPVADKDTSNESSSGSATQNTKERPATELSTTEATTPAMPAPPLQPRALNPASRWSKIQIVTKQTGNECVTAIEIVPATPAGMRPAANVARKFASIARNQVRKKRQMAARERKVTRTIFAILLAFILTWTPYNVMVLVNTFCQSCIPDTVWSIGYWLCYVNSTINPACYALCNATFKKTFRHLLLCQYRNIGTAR
Chain of Serotonin 5-HT6 (P50406 whole entry): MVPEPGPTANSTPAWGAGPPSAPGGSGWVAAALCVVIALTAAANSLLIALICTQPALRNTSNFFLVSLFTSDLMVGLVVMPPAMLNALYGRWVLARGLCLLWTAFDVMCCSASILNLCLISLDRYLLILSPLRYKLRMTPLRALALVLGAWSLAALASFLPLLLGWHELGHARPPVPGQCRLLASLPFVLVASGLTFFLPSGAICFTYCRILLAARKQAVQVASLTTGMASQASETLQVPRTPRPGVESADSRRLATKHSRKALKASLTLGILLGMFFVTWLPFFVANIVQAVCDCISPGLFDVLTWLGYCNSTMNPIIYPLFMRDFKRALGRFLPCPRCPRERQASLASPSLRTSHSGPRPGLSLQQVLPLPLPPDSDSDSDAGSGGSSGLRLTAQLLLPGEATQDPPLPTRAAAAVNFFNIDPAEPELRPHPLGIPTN

## Oc1ccc2c(c1O)-c1cccc3c1C(C2)NCC3 (stereo not shown) [Norapomorphine, norapomorphine]
Dopamine D3
  Ki: 117 nM
Muscarinic M1
  binding activity: did not bind significantly
[1]
  binding activity: did not bind significantly
[2]
  binding activity: did not bind significantly
Serotonin 5-HT4
  binding activity: did not bind significantly
Serotonin 5-HT1A
  Ki: 439 nM
Adrenergic β3
  binding activity: did not bind significantly
Dopamine D4.2
  binding activity: did not bind significantly
Tachykinin NK1
  binding activity: did not bind significantly
Neuropeptide Y NPY1
  binding activity: did not bind significantly
nicotinic
  binding activity: did not bind significantly
Adrenergic β1
  binding activity: did not bind significantly
Serotonin 5-HT2A; Serotonin 5-HT2A, read-out: Ki
  Ki: 1120 nM
Serotonin 5-HT6
  Ki: 1670 nM
Adrenergic β2
  binding activity: did not bind significantly
Serotonin 5-HT7; Serotonin 5-HT7, read-out: Ki
  Ki: 1380 nM
Muscarinic M2
  binding activity: did not bind significantly
[3]
  binding activity: did not bind significantly
Dopamine D4.7
  binding activity: did not bind significantly
Muscarinic M4
  binding activity: did not bind significantly
Tachykinin NK3
  binding activity: did not bind significantly
Serotonin 5-HT2
  Ki: N/S (N/S = no significant activity (≧50% at 10 μM))
Serotonin 5-HT1B
  Ki: 3560 nM
Adrenergic α1A
  Ki: 4170 nM
Adrenergic α2A; Adrenergic α2A, read-out: Ki
  Ki: 1430 nM
Muscarinic M3
  binding activity: did not bind significantly
Dopamine D4.4
  binding activity: did not bind significantly
Nitric oxide synthetase
  effect on the activity of nitric oxide synthetase: neither apomorphine nor its metabolite norapomorphine demonstrated any significant effect
Adrenergic α2B
  Ki: 213 nM
Muscarinic M5
  binding activity: did not bind significantly
Neuropeptide Y NPY2
  binding activity: did not bind significantly
Opiate μ
  Ki: 2090 nM
[4]
  binding activity: did not bind significantly
Dopamine D2S
  Ki: 1100 nM
Tachykinin NK2
  binding activity: did not bind significantly

## CN1CCc2cccc3c2[C@H]1Cc1ccc(O)c(O)c1-3 [Apomorphine, (R)-5,6,6a,7-tetrahydro-6-methyl-4H-dibenzo-[de,g]quinoline-10,11-diol]
Adrenergic α2C
  Ki: 19 nM
Serotonin 5-HT1D
  Ki: 288 nM
Opiate κ
  binding activity: No significant binding activity
[1]
  binding activity: No significant binding activity
[2]
  binding activity: No significant binding activity
Adrenergic α1B
  Ki: 882 nM
Serotonin 5-HT4
  binding activity: No significant binding activity
Adrenergic β3
  binding activity: No significant binding activity
Dopamine D4.2
  binding activity: No significant binding activity
Tachykinin NK1
  binding activity: No significant binding activity
Neuropeptide Y NPY1
  binding activity: No significant binding activity
nicotinic
  binding activity: No significant binding activity
Adrenergic β1
  binding activity: No significant binding activity
Serotonin 5-HT2A
  Ki: 27 nM
Serotonin 5-HT6
  Ki: 206 nM
Adrenergic β2
  binding activity: No significant binding activity
Serotonin 5-HT7
  Ki: 65 nM
Muscarinic M2
  binding activity: No significant binding activity
[3]
  binding activity: No significant binding activity
Dopamine D4.7
  binding activity: No significant binding activity
Muscarinic M4
  binding activity: No significant binding activity
Tachykinin NK3
  binding activity: No significant binding activity
Opiate δ
  binding activity: No significant binding activity
Serotonin 5-HT2; read-out: Ki
  Ki: 111 nM
Serotonin 5-HT1B
  Ki: 205 nM
Adrenergic α1A
  Ki: 343 nM
Adrenergic α2A
  Ki: 71 nM
Muscarinic M3
  binding activity: No significant binding activity
Dopamine D4.4
  binding activity: No significant binding activity
Nitric oxide synthetase
  effect on the activity of nitric oxide synthetase: neither apomorphine nor its metabolite norapomorphine demonstrated any significant effect
Muscarinic M5
  binding activity: No significant binding activity
Neuropeptide Y NPY2
  binding activity: No significant binding activity
Opiate μ
  binding activity: No significant binding activity
[4]
  binding activity: No significant binding activity
Tachykinin NK2
  binding activity: No significant binding activity
